How the values were obtained:
Format in all cases: in vivo
[1] = system: Alopecurus myosuroides; experiment: Pre-emergence herbicidal effect, greenhouse pot test; conditions: 504 h, 320 g a.i./ha, visual score after 3 weeks, 100% = plants have died, 0% = like control, read-out: Herbicidal effect against [%] ALOMY
Description: (§1) Seeds of monocotyledonous and dicotyledonous weed plants and crop plants are laid out in wood-fibre pots in sandy loam and covered with soil. The compounds according to the invention formulated in the form of wettable powders (WP) or as emulsion concentrates (EC) are then applied as aqueous suspension or emulsion at a water application rate of 600 to 800 l/ha (converted) with the addition of 0.2% wetting agent to the surface of the covering soil. After the treatment, the pots are placed in a greenhouse and kept under good growth conditions for the trial plants. The damage to the test plants is scored visually after a test period of 3 weeks by comparison with untreated controls (herbicidal activity in percent (%): 100% activity=the plants have died, 0% activity=like control plants). [table]

[2] = system: Avena fatua; experiment: as above; conditions: 504 h, 320 g a.i./ha, visual score after 3 weeks, 100% = plants have died, 0% = like control, read-out: Herbicidal effect against [%] AVEFA
Description: as §1

[3] = system: Echinochloa crus-galli; experiment: as above; conditions: 504 h, 320 g a.i./ha, visual score after 3 weeks, 100% = plants have died, 0% = like control, read-out: Herbicidal effect against [%] ECHCG
Description: as §1

[4] = system: Lolium multiflorum; experiment: as above; conditions: 320 g a.i./ha, visual score after 3 weeks, 100% = plants have died, 0% = like control
Description: as §1

[5] = system: Setaria viridis; experiment: as above; conditions: 504 h, 320 g a.i./ha, visual score after 3 weeks, 100% = plants have died, 0% = like control, read-out: Herbicidal effect against [%] SETVI
Description: as §1

[6] = system: Alopecurus myosuroides; experiment: Post-emergence herbicidal effect, greenhouse pot test; conditions: 504 h, 80 g a.i./ha, one-leaf stage, visual score after about 3 weeks, 100% = plants have died, read-out: Herbicidal effect against [%] ALOMY
Description: (§2) [table] Seeds of monocotyledonous and dicotyledonous weed and crop plants are laid out in sandy loam in wood-fibre pots, covered with soil and cultivated in a greenhouse under good growth conditions. 2 to 3 weeks after sowing, the test plants are treated at the one-leaf stage. The compounds according to the invention, formulated in the form of wettable powders (WP) or as emulsion concentrates (EC), are then sprayed as aqueous suspension or emulsion at a water application rate of 600 to 800 l/ha (converted) with the addition of 0.2% of wetting agent onto the green parts of the plants. After the test plants have been left to stand in the greenhouse under optimal growth conditions for about 3 weeks, the action of the preparations is assessed visually in comparison to untreated controls (herbicidal action in percent (%): 100% activity=the plants have died, 0% activity=like control plants).

[7] = system: Echinochloa crus-galli; experiment: as above; conditions: 504 h, 80 g a.i./ha, one-leaf stage, visual score after about 3 weeks, 100% = plants have died, read-out: Herbicidal effect against [%] ECHCG
Description: as §2

[8] = system: Setaria viridis; experiment: as above; conditions: 504 h, 80 g a.i./ha, one-leaf stage, visual score after about 3 weeks, 100% = plants have died, read-out: Herbicidal effect against [%] SETVI
Description: as §2

[9] = system: Hordeum murinum; experiment: Pre-emergence herbicidal effect, greenhouse pot test; conditions: 320 g a.i./ha, visual score after 3 weeks, 100% = plants have died, 0% = like control
Description: as §1

[10] = system: Lolium rigidium; experiment: as above; conditions: 320 g a.i./ha, visual score after 3 weeks, 100% = plants have died, 0% = like control
Description: as §1

[11] = system: Avena fatua; experiment: Post-emergence herbicidal effect, greenhouse pot test; conditions: 80 g a.i./ha, one-leaf stage, visual score after about 3 weeks, 100% = plants have died
Description: as §2

[12] = system: Hordeum murinum; experiment: as above; conditions: 80 g a.i./ha, one-leaf stage, visual score after about 3 weeks, 100% = plants have died
Description: as §2

[13] = system: Lolium rigidium; experiment: as above; conditions: 80 g a.i./ha, one-leaf stage, visual score after about 3 weeks, 100% = plants have died
Description: as §2

[14] = system: Stellaria media; experiment: as above; conditions: 80 g a.i./ha, one-leaf stage, visual score after about 3 weeks, 100% = plants have died
Description: as §2

[15] = system: Cyperus esculentus; experiment: Pre-emergence herbicidal effect, greenhouse pot test; conditions: 320 g a.i./ha, visual score after 3 weeks, 100% = plants have died, 0% = like control
Description: as §1

Row | Structure (SMILES) | pest or weed control at 320 g/ha [1] | pest or weed control at 320 g/ha [2] | pest or weed control at 320 g/ha [3] | Herbicidal effect against [%] LOLMU [4] | pest or weed control at 320 g/ha [5] | pest or weed control at 80 g/ha [6] | pest or weed control at 80 g/ha [7] | pest or weed control at 80 g/ha [8] | Herbicidal effect against [%] HORMU [9] | Herbicidal effect against [%] LOLRI [10] | Herbicidal effect against [%] AVEFA [11] | Herbicidal effect against [%] HORMU [12] | Herbicidal effect against [%] LOLRI [13] | Herbicidal effect against [%] STEME [14] | Herbicidal effect against [%] CYPES [15]
1 | CCc1cc(C#CC2CC2)cc(C)c1C1=C(OC(=O)C(C)C)C2(CCC(OC)CC2)NC1=O (stereo not shown) [Example P15] | 80 to 100% | 80 to 100% | 80 to 100% | 100% | 80 to 100% | 90 to 100% | 90 to 100% | 90 to 100% |  |  |  |  |  |  | 
2 | CC#Cc1cc(C)c(C2=C(O)C3(CCC(OCC)CC3)NC2=O)c(C)c1 (stereo not shown) [Example D7] |  |  |  |  |  |  |  |  | 100% | 100% | 100% | 60% | 100% | 20% | 
3 | CCOC(=O)OC1=C(c2c(C)cc(C#CC3CC3)cc2CC)C(=O)NC12CCC(OC)CC2 (stereo not shown) [Example P14] | 80 to 100% | 80 to 100% | 80 to 100% | 100% | 80 to 100% | 90 to 100% | 90 to 100% | 90 to 100% |  |  |  |  |  |  | 
4 | CC#Cc1cc(C)c(C2=C(OC(=O)OCC)C3(CCC(OCC)CC3)NC2=O)c(CC)c1 (stereo not shown) [Example P10] | 80 to 100% | 80 to 100% | 80 to 100% |  | 80 to 100% | 80 to 100% | 80 to 100% | 80 to 100% | 90% | 100% | 90% | 100% | 100% | 10% | 
5 | CC#Cc1cc(C)c(C2=C(O)C3(CCC(OCC)CC3)NC2=O)c(CC)c1 (stereo not shown) [Example D4] | 80 to 100% | 80 to 100% | 80 to 100% |  | 80 to 100% | 80 to 100% | 80 to 100% | 80 to 100% | 100% | 100% | 100% | 100% | 100% | 10% | 70%
6 | CC#Cc1cc(C)c(C2=C(OC(=O)C(C)C)C3(CCC(OCC)CC3)NC2=O)c(C)c1 (stereo not shown) [Example P8] | 80 to 100% | 80 to 100% | 80 to 100% |  | 80 to 100% | 80 to 100% | 80 to 100% | 80 to 100% | 100% | 100% | 100% | 100% | 100% | 60% | 100%
7 | CC#Cc1cc(C)c(C2=C(O)C3(CCC(OCC)CC3)NC2=O)c(C)c1 (stereo not shown) [Example S3] |  |  |  |  |  |  |  |  | 100% | 100% | 100% | 100% | 100% | 100% | 80%

Reference: patent US20180282275A1, “New alkynyl-substituted 3-phenylpyrrolidine-2,4-diones and use thereof as herbicides” (Bayer CropScience Aktiengesellschaft, priority 2015, published 2018)
